Results from patent publication US20230085307A1, “PYRIDAZINONE COMPOUND AND HERBICIDE” (NISSAN CHEMICAL CORPORATION, priority 2019, published 2023).

How the values were obtained:
velvetleaf [1] = test: Test Example 5: herbicidal effect by foliage application, plastic box (Table 20, symbol M); assay type: in vivo, velvetleaf (Abutilon theophrasti); conditions: evaluated three weeks after application
Method in brief: (§1)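 Foliar spray test: emulsion formulation diluted in water to a set application rate, sprayed onto 14-day-old plants raised in diluvial soil at 25° C to 30° C under glass. Both herbicidal effect and crop effect rated visually three weeks later.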

lambsquarters [2] = test: Test Example 5: herbicidal effect by foliage application, plastic box (Table 20, symbol O); assay type: in vivo, lambsquarters (Chenopodium album); conditions: foliage application, 320 g/ha, evaluated three weeks after application
Method in brief: as §1

southern crabgrass [3] = test: Test Example 4: herbicidal effect by soil treatment (Table 19, symbol F); assay type: in vivo, southern crabgrass (Digitaria ciliaris)
Method in brief: (§2)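 Herbicidal effect was rated 3 weeks after treatment, using the scoring criteria of an earlier test. The compound, formulated as an emulsion and diluted in water to a set herbicide amount, had been sprayed uniformly on soil over freshly sown seeds. Growth took place in a greenhouse at 25° C. to 30° C.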

redroot pigweed [4] = test: Test Example 4: herbicidal effect by soil treatment (Table 19, symbol N); assay type: in vivo, redroot pigweed (Amaranthus retroflexus)
Method in brief: as §2

blackgrass [5] = test: Test Example 5: herbicidal effect by foliage application, plastic box (Table 20, symbol J); assay type: in vivo, blackgrass (Alopecurus myosuroides); conditions: evaluated three weeks after application
Method in brief: as §1

windgrass = test: Test Example 4: herbicidal effect by soil treatment (Table 19, symbol L); assay type: in vivo, windgrass (Apera spica-venti)
Method in brief: as §2

barnyard grass [6] = test: Test Example 4: herbicidal effect by soil treatment (Table 19, symbol H); assay type: in vivo, barnyard grass (Echinochloa crus-galli)
Method in brief: as §2

southern crabgrass [7] = test: Test Example 5: herbicidal effect by foliage application, plastic box (Table 20, symbol F); assay type: in vivo, southern crabgrass (Digitaria ciliaris); conditions: evaluated three weeks after application
Method in brief: as §1

Italian ryegrass [8] = test: Test Example 4: herbicidal effect by soil treatment (Table 19, symbol K); assay type: in vivo, Italian ryegrass (Lolium multiflorum)
Method in brief: as §2

blackgrass [9] = test: Test Example 4: herbicidal effect by soil treatment (Table 19, symbol J); assay type: in vivo, blackgrass (Alopecurus myosuroides)
Method in brief: as §2

rice flat sedge = test: Test Example 3: herbicidal effect by foliage application, Wagner pot (Table 18, symbol E); assay type: in vivo, rice flat sedge (Cyperus iria)
Method in brief: (§3)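 Plants were sown in alluvial soil held under 0.1–0.5 cm standing water and grown 14 days in a greenhouse at 25–30 °C. An emulsifiable formulation, water-diluted to the set dose, was then sprayed onto the foliage, and effects were scored three weeks later using previously defined criteria.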

Chinese sprangletop = test: Test Example 3: herbicidal effect by foliage application, Wagner pot (Table 18, symbol D); assay type: in vivo, chinese sprangletop (Leptochloa chinensis)
Method in brief: as §3

lambsquarters [10] = test: Test Example 4: herbicidal effect by soil treatment (Table 19, symbol O); assay type: in vivo, lambsquarters (Chenopodium album)
Method in brief: as §2

wild oat [11] = test: Test Example 5: herbicidal effect by foliage application, plastic box (Table 20, symbol I); assay type: in vivo, wild oat (Avena fatua); conditions: evaluated three weeks after application
Method in brief: as §1

barnyard grass [12] = test: Test Example 5: herbicidal effect by foliage application, plastic box (Table 20, symbol H); assay type: in vivo, barnyard grass (Echinochloa crus-galli); conditions: evaluated three weeks after application
Method in brief: as §1

redroot pigweed [13] = test: Test Example 5: herbicidal effect by foliage application, plastic box (Table 20, symbol N); assay type: in vivo, redroot pigweed (Amaranthus retroflexus); conditions: evaluated three weeks after application
Method in brief: as §1

velvetleaf [14] = test: Test Example 4: herbicidal effect by soil treatment (Table 19, symbol M); assay type: in vivo, velvetleaf (Abutilon theophrasti)
Method in brief: as §2

Italian ryegrass [15] = test: Test Example 5: herbicidal effect by foliage application, plastic box (Table 20, symbol K); assay type: in vivo, Italian ryegrass (Lolium multiflorum); conditions: evaluated three weeks after application
Method in brief: as §1

persian speedwell [16] = test: Test Example 5: herbicidal effect by foliage application, plastic box (Table 20, symbol R); assay type: in vivo, Persian speedwell (Veronica persica); conditions: evaluated three weeks after application
Method in brief: as §1

green foxtail [17] = test: Test Example 4: herbicidal effect by soil treatment (Table 19, symbol G); assay type: in vivo, green foxtail (Setaria viridis)
Method in brief: as §2

chickweed [18] = test: Test Example 4: herbicidal effect by soil treatment (Table 19, symbol P); assay type: in vivo, common chickweed (Stellaria media)
Method in brief: as §2

barnyard grass [19] = test: Test Example 3: herbicidal effect by foliage application, Wagner pot (Table 18, symbol H); assay type: in vivo, barnyard grass (Echinochloa crus-galli)
Method in brief: as §3

green foxtail [20] = test: Test Example 5: herbicidal effect by foliage application, plastic box (Table 20, symbol G); assay type: in vivo, green foxtail (Setaria viridis); conditions: evaluated three weeks after application
Method in brief: as §1

wild oat [21] = test: Test Example 4: herbicidal effect by soil treatment (Table 19, symbol I); assay type: in vivo, wild oat (Avena fatua)
Method in brief: as §2

chickweed [22] = test: Test Example 5: herbicidal effect by foliage application, plastic box (Table 20, symbol P); assay type: in vivo, common chickweed (Stellaria media); conditions: evaluated three weeks after application
Method in brief: as §1

persian speedwell [23] = test: Test Example 4: herbicidal effect by soil treatment (Table 19, symbol R); assay type: in vivo, Persian speedwell (Veronica persica)
Method in brief: as §2

[24] = amount of applied herbicide 320 g/ha
[25] = amount of applied herbicide 272 g/ha, foliage application after 14-day growth
[26] = amount of applied herbicide 272 g/ha

## COc1cccc(-c2sc3ccc(F)cc3c2-c2c(O)c(C)nn(C)c2=O)c1 [2-209]
Velvetleaf [1]; foliage application, 320 g/ha
  herbicidal effect on M: velvetleaf (criteria 0-5): 4 (Herbicidal rate of 70% or more and less than 90%)
Lambsquarters [2]
  herbicidal effect on O: lambsquarters (criteria 0-5): 4 (Herbicidal rate of 70% or more and less than 90%)
Southern crabgrass [3]; [24]
  F: southern crabgrass, herbicidal effect rating: 5 (Herbicidal rate of 90% or more (almost completely withered))
Redroot pigweed [4]; [24]
  N: redroot pigweed, herbicidal effect rating: 4 (Herbicidal rate of 70% or more and less than 90%)
Blackgrass [5]; foliage application, 320 g/ha
  herbicidal effect on J: blackgrass (criteria 0-5): 4 (Herbicidal rate of 70% or more and less than 90%)
windgrass; [24]
  L: windgrass, herbicidal effect rating: 0 (Herbicidal rate of 5% or less (almost no effect))
Barnyard grass [6]; [24]
  H: barnyard grass, herbicidal effect rating: 4 (Herbicidal rate of 70% or more and less than 90%)
Southern crabgrass [7]; foliage application, 320 g/ha
  herbicidal effect on F: southern crabgrass (criteria 0-5): 5 (Herbicidal rate of 90% or more (almost completely withered))
Italian ryegrass [8]; [24]
  K: Italian ryegrass, herbicidal effect rating: 2 (Herbicidal rate of 20% or more and less than 40%)
Blackgrass [9]; [24]
  J: blackgrass, herbicidal effect rating: 0 (Herbicidal rate of 5% or less (almost no effect))
Rice flat sedge; [24]
  herbicidal effect on E: rice flat sedge: 5 (Herbicidal rate of 90% or more (almost completely withered))
Chinese sprangletop; [24]
  herbicidal effect on D: Chinese sprangletop: 4 (Herbicidal rate of 70% or more and less than 90%)
Lambsquarters [10]; [24]
  O: lambsquarters, herbicidal effect rating: 5 (Herbicidal rate of 90% or more (almost completely withered))
Wild oat [11]; foliage application, 320 g/ha
  herbicidal effect on I: wild oat (criteria 0-5): 0 (Herbicidal rate of 5% or less (almost no effect))
Barnyard grass [12]; foliage application, 320 g/ha
  herbicidal effect on H: barnyard grass (criteria 0-5): 5 (Herbicidal rate of 90% or more (almost completely withered))
Redroot pigweed [13]; foliage application, 320 g/ha
  herbicidal effect on N: redroot pigweed (criteria 0-5): 5 (Herbicidal rate of 90% or more (almost completely withered))
Velvetleaf [14]; [24]
  M: velvetleaf, herbicidal effect rating: 2 (Herbicidal rate of 20% or more and less than 40%)
Italian ryegrass [15]; foliage application, 320 g/ha
  herbicidal effect on K: Italian ryegrass (criteria 0-5): 4 (Herbicidal rate of 70% or more and less than 90%)
Persian speedwell [16]; foliage application, 320 g/ha
  herbicidal effect on R: persian speedwell (criteria 0-5): 5 (Herbicidal rate of 90% or more (almost completely withered))
Green foxtail [17]; [24]
  G: green foxtail, herbicidal effect rating: 5 (Herbicidal rate of 90% or more (almost completely withered))
Chickweed [18]; [24]
  P: chickweed, herbicidal effect rating: 4 (Herbicidal rate of 70% or more and less than 90%)
Barnyard grass [19]; [24]
  herbicidal effect on H: barnyard grass: 5 (Herbicidal rate of 90% or more (almost completely withered))
Green foxtail [20]; foliage application, 320 g/ha
  herbicidal effect on G: green foxtail (criteria 0-5): 5 (Herbicidal rate of 90% or more (almost completely withered))
Wild oat [21]; [24]
  I: wild oat, herbicidal effect rating: 0 (Herbicidal rate of 5% or less (almost no effect))
Chickweed [22]; foliage application, 320 g/ha
  herbicidal effect on P: chickweed (criteria 0-5): 5 (Herbicidal rate of 90% or more (almost completely withered))
Persian speedwell [23]; [24]
  R: persian speedwell, herbicidal effect rating: 1 (Herbicidal rate of 5% or more and less than 20%)

## CCCC(=O)Oc1c(C)nn(C)c(=O)c1-c1c(-c2ccccc2OC(F)F)sc2cc(F)c(F)cc12 [5-022]
Velvetleaf [1]; [25]
  Herbicidal effect by foliage application, M: velvetleaf: 5 (Herbicidal rate of 90% or more (almost completely withered))
Southern crabgrass [3]; [26]
  F: southern crabgrass, herbicidal effect grade: 1 (Herbicidal rate of 5% or more and less than 20%)
Redroot pigweed [4]; [26]
  N: redroot pigweed, herbicidal effect grade: 4 (Herbicidal rate of 70% or more and less than 90%)
Blackgrass [5]; [25]
  Herbicidal effect by foliage application, J: blackgrass: 1 (Herbicidal rate of 5% or more and less than 20%)
windgrass; [26]
  L: windgrass, herbicidal effect grade: 0 (Herbicidal rate of 5% or less (almost no effect))
Barnyard grass [6]; [26]
  H: barnyard grass, herbicidal effect grade: 0 (Herbicidal rate of 5% or less (almost no effect))
Southern crabgrass [7]; [25]
  Herbicidal effect by foliage application, F: southern crabgrass: 4 (Herbicidal rate of 70% or more and less than 90%)
Italian ryegrass [8]; [26]
  K: Italian ryegrass, herbicidal effect grade: 0 (Herbicidal rate of 5% or less (almost no effect))
Blackgrass [9]; [26]
  J: blackgrass, herbicidal effect grade: 0 (Herbicidal rate of 5% or less (almost no effect))
Rice flat sedge; 272 g/ha
  herbicidal effect on rice flat sedge (E): 3 (Herbicidal rate of 40% or more and less than 70%)
Chinese sprangletop; 272 g/ha
  herbicidal effect on Chinese sprangletop (D): 3 (Herbicidal rate of 40% or more and less than 70%)
Lambsquarters [10]; [26]
  O: lambsquarters, herbicidal effect grade: 3 (Herbicidal rate of 40% or more and less than 70%)
Wild oat [11]; [25]
  Herbicidal effect by foliage application, I: wild oat: 0 (Herbicidal rate of 5% or less (almost no effect))
Barnyard grass [12]; [25]
  Herbicidal effect by foliage application, H: barnyard grass: 3 (Herbicidal rate of 40% or more and less than 70%)
Redroot pigweed [13]; [25]
  Herbicidal effect by foliage application, N: redroot pigweed: 5 (Herbicidal rate of 90% or more (almost completely withered))
Velvetleaf [14]; [26]
  M: velvetleaf, herbicidal effect grade: 3 (Herbicidal rate of 40% or more and less than 70%)
Italian ryegrass [15]; [25]
  Herbicidal effect by foliage application, K: Italian ryegrass: 0 (Herbicidal rate of 5% or less (almost no effect))
Persian speedwell [16]; [25]
  Herbicidal effect by foliage application, R: persian speedwell: 4 (Herbicidal rate of 70% or more and less than 90%)
Green foxtail [17]; [26]
  G: green foxtail, herbicidal effect grade: 3 (Herbicidal rate of 40% or more and less than 70%)
Chickweed [18]; [26]
  P: chickweed, herbicidal effect grade: 3 (Herbicidal rate of 40% or more and less than 70%)
Barnyard grass [19]; 272 g/ha
  herbicidal effect on barnyard grass (H): 4 (Herbicidal rate of 70% or more and less than 90%)
Green foxtail [20]; [25]
  Herbicidal effect by foliage application, G: green foxtail: 5 (Herbicidal rate of 90% or more (almost completely withered))
Wild oat [21]; [26]
  I: wild oat, herbicidal effect grade: 0 (Herbicidal rate of 5% or less (almost no effect))
Chickweed [22]; [25]
  Herbicidal effect by foliage application, P: chickweed: 5 (Herbicidal rate of 90% or more (almost completely withered))
Persian speedwell [23]; [26]
  R: persian speedwell, herbicidal effect grade: 3 (Herbicidal rate of 40% or more and less than 70%)
